Values of other authors as cited in paper PMC8583936, “Machine Learning Assisted Approach for Finding Novel High Activity Agonists of Human Ectopic Olfactory Receptors” (International Journal of Molecular Sciences, 2021).
Structures can show the parent of a compound that is named as a salt. Where two headings read alike, the source gives them in different places.

Assays:
[1] = biological target: T1, OR1A1 (Homo sapiens, UniProt Q9P1Q5); details: cited from earlier work
T1 sequence (Q9P1Q5 1-309): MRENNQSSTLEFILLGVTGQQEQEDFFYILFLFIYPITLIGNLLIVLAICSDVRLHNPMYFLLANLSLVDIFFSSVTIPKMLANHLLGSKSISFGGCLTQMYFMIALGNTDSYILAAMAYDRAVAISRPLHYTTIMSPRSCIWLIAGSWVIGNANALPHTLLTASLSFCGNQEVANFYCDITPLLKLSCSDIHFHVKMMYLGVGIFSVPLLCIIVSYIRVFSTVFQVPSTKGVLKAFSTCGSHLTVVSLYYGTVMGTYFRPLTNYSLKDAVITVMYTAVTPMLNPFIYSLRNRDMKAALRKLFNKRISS

[2] = biological target: T2, OR2W1 (Homo sapiens, UniProt Q9Y3N9); details: cited from earlier work
T2 sequence (Q9Y3N9 1-320): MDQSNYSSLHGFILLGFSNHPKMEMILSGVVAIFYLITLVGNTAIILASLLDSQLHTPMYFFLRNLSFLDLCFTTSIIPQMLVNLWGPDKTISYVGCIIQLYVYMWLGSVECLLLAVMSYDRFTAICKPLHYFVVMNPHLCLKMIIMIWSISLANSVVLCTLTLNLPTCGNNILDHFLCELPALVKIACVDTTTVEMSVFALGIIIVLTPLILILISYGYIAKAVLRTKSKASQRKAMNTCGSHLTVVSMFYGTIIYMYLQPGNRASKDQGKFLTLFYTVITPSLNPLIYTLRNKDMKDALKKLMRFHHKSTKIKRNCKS

[3] = Table S1, ref Supplement references [1]-[9] as printed after each odorant name
[4] = Table S2, ref Supplement references [2]-[12] as printed after each odorant name

SMILES	Class (agonist / non-agonist / conflicting info.) for OR1A1 [1]	Class (agonist / non-agonist / antagonist / conflicting info.) for OR2W1 [2]	Class (agonist / non-agonist / conflicting info.) for OR1A1 [1, 3]	Class (agonist / non-agonist / antagonist / conflicting info.) for OR2W1 [2, 4]
O=c1cc(O)c2ccccc2o1 [4-hydroxycoumarin]	Non-agonist	Non-agonist	–	–
Cc1ccc(O)cc1 [4-methylphenol]	–	–	Non-agonist	Non-agonist
CCCCC1OC(=O)CC1C (stereo not shown) [5-Butyl-4-methyloxolan-2-one]	–	–	Non-agonist	Non-agonist
CCC1OC(=O)C(O)=C1C (stereo not shown) [5-Ethyl-3-hydroxy-4-methylfuran-2(5H)-one]	–	–	Non-agonist	Non-agonist
CCCCCCC1CCC(=O)O1 (stereo not shown) [5-Hexyloxolan-2-one]	–	–	Non-agonist	Non-agonist
CCCCCCCCC1CCC(=O)O1 (stereo not shown) [5-Octyloxolan-2-one]	–	–	Non-agonist	Non-agonist
CCCCCC1CCC(=O)O1 (stereo not shown) [5-Pentyloxolan-2-one]	–	–	Agonist	Non-agonist
CCCC1CCCC(=O)O1 (stereo not shown) [6-Propyloxan-2-one]	–	–	Non-agonist	Non-agonist
COc1ccc2ccc(=O)oc2c1 [7-methoxycoumarin]	–	–	Non-agonist	Non-agonist
CC(C)CCCCCCCCCCC=O [12-methyltridecanal]	–	–	Non-agonist	Non-agonist
CC/C=C\CC/C=C/CO [(2E,6Z)-Nona-2,6-dien-1-ol]	–	–	Non-agonist	Non-agonist
CCCCC[C@H](C)O [(+)-2-heptanol]	–	–	Non-agonist	Non-agonist
CC12CCC(CC1=O)C2(C)C (stereo not drawn) [(+)-Camphor]	–	–	Non-agonist	Non-agonist
C=C(C)[C@H]1CC=C(C)C(=O)C1 [(+)-Carvone]	–	–	Agonist	Agonist
C=C(C)[C@@H]1CC[C@@H](C)C(=O)C1 [(+)-Dihydrocarvone]	–	–	Agonist	Agonist
CC(C)=C1CC[C@@H](C)CC1=O [(+)-Pulegone]	Non-agonist	Non-agonist	–	–
C=C1CC[C@]2(C(C)C)C[C@H]12 [(+)-Sabinene]	–	–	Non-agonist	Non-agonist
CC1(C)[C@H]2CC[C@]1(C)C(=O)C2 [(-)-Camphor]	–	–	Non-agonist	Non-agonist
CCCC/C=C/C=O [(E)-2-heptenal]	–	–	Non-agonist	Agonist
CCCCCC[C@@H](C)O [(R)-(-)-2-octanol]	–	–	Non-agonist	Non-agonist
CCCCCC[C@H](C)O [(S)-(+)-2-octanol]	–	–	Non-agonist	Non-agonist
CCOC(C)OCC [Acetal]	–	–	Non-agonist	Non-agonist
CC=O [Acetaldehyde]	Non-agonist	Non-agonist	–	–
CC(=O)O [Acetic acid]	–	–	Non-agonist	Non-agonist
CC(=O)C(C)O (stereo not shown) [Acetoin]	–	–	Non-agonist	Non-agonist
CC(=O)c1ccccc1 [Acetophenone]	Non-agonist	Agonist	–	–
C=CCc1ccccc1 [Allyl benzene]	Non-agonist	Non-agonist	–	–

SMILES	Class (agonist / non-agonist / conflicting info.) for OR1A1 [1]	Class (agonist / non-agonist / antagonist / conflicting info.) for OR2W1 [2]	Class (agonist / non-agonist / conflicting info.) for OR1A1 [1, 3]	Class (agonist / non-agonist / antagonist / conflicting info.) for OR2W1 [2, 4]
C=CCSSCC=C [Allyl disulfide]	Non-agonist	Non-agonist	–	–
C=CCOC(=O)CCCCCC [Allyl heptanoate]	Agonist	Non-agonist	–	–
C=CCSC [Allyl methyl sulfide]	–	–	Non-agonist	Non-agonist
C=CCOC(=O)Cc1ccccc1 [Allyl phenylacetate]	Agonist	Agonist	–	–
CC1=CC[C@H](C(C)C)C=C1 [Alpha-phellandrene]	–	–	Non-agonist	Non-agonist
CCCCCOC(=O)CCC [Amyl butyrate]	–	–	Conflicting info.	Non-agonist
CCCCCOC(=O)CCCCC [Amyl hexanoate]	–	–	Conflicting info.	Non-agonist
C[C@@]12C=CC[C@H]1[C@@H]1CCC3=CC(=O)CC[C@]3(C)[C@H]1CC2 [Androstadienone]	Agonist	Antagonist	–	–
C[C@]12CCC(=O)C[C@@H]1CC[C@@H]1[C@@H]2CC[C@]2(C)C=CC[C@@H]12 [Androstenone]	Conflicting info.	Antagonist	–	–
COc1ccc(C=O)cc1 [Anisaldehyde]	–	–	Non-agonist	Non-agonist
c1ccccc1 [Benzene]	–	–	Conflicting info.	Non-agonist
CC(=O)OCc1ccccc1 [Benzyl acetate]	–	–	Agonist	Agonist
C/C=C/C(=O)C1=C(C)CCCC1(C)C [Beta-damascone]	–	–	Conflicting info.	Non-agonist
CSCSC [Bis(methylthio)methane]	Non-agonist	Non-agonist	–	–
CCCC=O [Butanal]	–	–	Non-agonist	Non-agonist
CCCCOC(C)=O [Butyl acetate]	–	–	Non-agonist	Non-agonist
CCCCOC(=O)c1ccccc1N [Butyl anthranilate]	Agonist	Agonist	–	–
CCCCOC(=O)C(C)OC(=O)CCC (stereo not shown) [Butyl butyryl lactate]	–	–	Non-agonist	Non-agonist
CCCCOC=O [Butyl formate]	–	–	Conflicting info.	Conflicting info.
CCCCCCC(=O)OCCCC [Butyl heptanoate]	–	–	Non-agonist	Non-agonist
CCCC(=O)O [Butyric acid]	–	–	Conflicting info.	Conflicting info.
O=C/C=C/c1ccccc1 [Cinnamaldehyde]	–	–	Agonist	Non-agonist
CC(=O)OC/C=C/c1ccccc1 [Cinnamyl acetate]	–	–	Non-agonist	Agonist
OCC=Cc1ccccc1 [Cinnamyl alcohol]	–	–	Non-agonist	Non-agonist
CC/C=C\CCO [Cis-3-hexen-1-ol]	–	–	Conflicting info.	Conflicting info.
CC(C)=CCC/C(C)=C/C=O [Citral]	Conflicting info.	Conflicting info.	–	–
